Earlier results on 4 molecules are cited in US20090004360A1, “Taste Potentiator Compositions in Oral Delivery Systems” (CADBURY ADAMS USA LLC, priority 2007, published 2009).

Peptide text beside a SMILES is read from it.

Test in series [1]: not given
The source holds these as a separate data set.

For the molecule `O=C(O)c1ccc(O)cc1O` [2,4-DHB, 2,4-Dihydroxybenzoic acid], where the note is “0.2% added to a 5% sucrose solution, Canadian Patent No. 1208966”, the “effect on sweetness of a sucrose solution” value is listed as “increase in sweetness”. Further, the “effect on the sweetness intensity of both sucralose and aspartame” value (FIGS. 1 and 2 and Tables 1 and 2 of U.S. Pat. No. 6,461,658) is recorded as “slightly inhibitory effect”. Besides, the “effect on sweetness of aspartame” value (used with aspartame, WO99/15032) was “increase sweetness synergistically”. Where the note is “with sucralose, U.S. Pat. No. 6,461,658”, the “length of time during which sucralose sweetness is perceived” value was “significantly reducing the length of time”. With `O=C(O)c1cccc(O)c1` [Example 3-HB, 3-hydroxybenzoic acid], the “effect on sweetness of sucrose, aspartame and saccharin” value (pH 2.0 to 5.5, European Patent No. 0132444 and U.S. Pat. No. 4,627,987) is “enhance sweetness”.

Take `OCC(O)CO` [Glycerin]: in series [1] (in vivo), the “sweetness relative to cane sugar” value was “about 60%”. Take `COC(=O)[C@H](Cc1ccccc1)NC(=O)[C@@H](N)CC(=O)O` [aspartame, L-aspartyl-L-phenylalanine methyl ester] (HELM PEPTIDE1{D.F.[CO[*:1]]}$$$$V2.0): the “sweetness relative to sucrose” value in series [1] (recognized value, 0.05 g in 100 ml isosweet to 10 g sucrose in 100 ml) is given as 200 times.
